From patent US8722608B2, “Process of bleaching” (Conopco, Inc., priority 2005, dated 2014)

Assays:
[1] = Stability of aqueous catalyst salt solutions (UV/Vis of 1000× diluted solutions); assay type: physicochemical; conditions: 2 weeks; for precipitate formation: pH 2 to 5, 37° C.
Experimental: Stability of aqueous solutions of chloride, sulphate and acetate salts are provided. Solutions of the bleach catalyst with chloride, sulphate and acetate anion were brought to pH 2, 3, 4 and 5 by hydrochloric acid, sulphuric acid and acetic acid respectively. For the acetate this could only give pH 5. For the lower pH values sulphuric acid was used in the case of acetate. The solutions were kept at 37° C. and after 2 weeks the stability was monitored from the absorptions in the UV/Vis spectra of 1000× diluted solutions.

[2] = Solubility in water at 20° C.; assay type: physicochemical
[3] = Bleaching of softwood D0 pulp with H2O2 and catalyst, whiteness; conditions: 2.5 microM catalyst, 10 kg/t H2O2, 8 kg/t NaOH, 50° C., 1 h, 5% consistency; SD 0.3 points
Experimental: Softwood chemical mill pulp obtained after the D0 bleaching stage (abbreviated as softwood D0 pulp) was used. The bleaching experiments were conducted on small scale in 100 ml vessels using the pulps at 5% consistency (i.e., 5% oven dry wood pulp; 95% aqueous bleaching liquor). The mixture contained 2.5 microM of the catalyst (as chloride, sulfate, acetate and PF6 salts—see Table), 1 kg/t of MgSO4, 8 kg/t of NaOH and 10 kg/t of H2O2 (kg/t: kg chemicals per ton oven dry pulp). The mixture was manually stirred to ensure good distribution of the bleaching chemicals. Then the vessel was placed in a water bath and stirred regularly at 50° C. for 1 h. All experiments were carried out at least 6 times. As a reference the experiment was conducted without catalyst. The dosages and exact reaction conditions are given in the sections below. After the allocated bleaching times the pulp batches were removed from the vessels, filtered using a Buchner funnel, and washed with 100 ml of water. From the resultant samples of bleached pulp 4×4 cm discs were made having a flat surface on one side. The softwood D0 pulp samples were dried using a L&W Rapid Dryer (Lorentzen and Wetter) at 90° C. for 20 minutes. Whiteness of the bleached pulps was determined using L, a*, b* values as defined by CIE (Commission Internationale de l'Eclairage) of the dried pad was measured using a Minolta spectrophotometer.

SMILES | % (UV/Vis) remaining ([1]; pH 2, 37° C.) [%] | precipitate formation [1] | % (UV/Vis) remaining ([1]; pH 3, 37° C.) [%] | % (UV/Vis) remaining ([1]; pH 4, 37° C.) [%] | % (UV/Vis) remaining ([1]; pH 5, 37° C.) [%] | solubility in water [2] | Whiteness [3] | water solubility [2] [g per liter]
CC(=O)[O-].CC(=O)[O-].CN1CCN(C)CCN(C)CC1.CN1CCN(C)CCN(C)CC1.[Mn+4].[Mn+4].[O-2].[O-2].[O-2] [[Mn2O3(Me3—TACN)2]•(OAc)2, [Mn2O3(Me3-TACN)2].(OAc)2] | 87 | (No precipitate is formed) | 91 | 93 | 95 | more than 70 gram/Liter | 84.0 | 
CN1CCN(C)CCN(C)CC1.CN1CCN(C)CCN(C)CC1.[Cl-].[Cl-].[Mn+4].[Mn+4].[O-2].[O-2].[O-2] [[Mn2O3(Me3—TACN)2]•Cl2, [Mn2O3(Me3-TACN)2].(Cl)2] | 100 | (Precipitate is formed at all pH's) | 100 | 97 | 94 |  | 84.3 | 
CN1CCN(C)CCN(C)CC1.CN1CCN(C)CCN(C)CC1.F[P-](F)(F)(F)(F)F.F[P-](F)(F)(F)(F)F.[Mn+4].[Mn+4].[O-2].[O-2].[O-2] [[Mn2O3(Me3—TACN)2]•(PF6)2, [Mn2O3(Me3-TACN)2].(PF6)2] |  |  |  |  |  | 1.08 % (w/w) | 84.4 | 10.8
CN1CCN(C)CCN(C)CC1.CN1CCN(C)CCN(C)CC1.O=S(=O)([O-])[O-].[Mn+4].[Mn+4].[O-2].[O-2].[O-2] [[Mn2O3(Me3—TACN)2]•SO4, [Mn2O3(Me3-TACN)2].SO4] | 78 | (Precipitate only at pH = 5) | 96 | 94 | 98 |  | 84.1 | 
